Measurements taken from PubChem BioAssay AID1645868 (Buhrlage Lab, Dana-Farber Cancer Institute and Novartis …, 2021).
Calls of active or inactive are those of the source.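 How the source made its calls: active means maximal percent inhibition of the deubiquitinase OTUD3 of at least 30% across the tested doses; inactive means the rest.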

These compounds were tested against OTU domain-containing protein 3 (Homo sapiens) (UniProt Q5T2D3) (assay: Validation of screening hits, potency titration, in vitro enzymatic, OTU domain-containing protein 3 DUB inhibitors (AID 1645868)). Details: purified OTUD3, ubiquitin-rhodamine cleavage fluorescence, 2 h.
Sequence of OTU domain-containing protein 3 (Homo sapiens) (Q5T2D3 whole entry, looked up, the tested form may be a part): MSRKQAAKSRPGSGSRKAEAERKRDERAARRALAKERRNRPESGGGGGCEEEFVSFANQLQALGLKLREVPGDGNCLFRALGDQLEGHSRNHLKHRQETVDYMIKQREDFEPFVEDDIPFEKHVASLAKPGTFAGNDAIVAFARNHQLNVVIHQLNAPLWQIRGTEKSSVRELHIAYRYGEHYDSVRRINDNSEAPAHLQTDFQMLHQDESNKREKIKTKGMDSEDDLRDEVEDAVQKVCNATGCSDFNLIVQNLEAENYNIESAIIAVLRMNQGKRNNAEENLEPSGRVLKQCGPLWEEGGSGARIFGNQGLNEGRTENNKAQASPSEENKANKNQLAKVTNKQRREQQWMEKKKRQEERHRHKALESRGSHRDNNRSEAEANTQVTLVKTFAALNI

Row | SMILES | IC50
1 | O=c1oc2ccccc2c2nn(-c3ccccn3)cc12 | > 50 µM (inactive)
2 | COc1ccc(Cl)cc1N1C(=O)[C@H]2[C@@H](C1=O)[C@]1(C(=O)Nc3c(C)cc(C)cc31)N1CCC[C@@H]21 | > 50 µM (inactive)
3 | Cc1ccc(NC(=O)Cc2nnc3c(-c4nc(C5CC5)no4)cccn23)cc1 | 31.3 µM
4 | CC(=O)c1ccc(NC(=O)CC2C(=O)Nc3nc4ccccc4n32)cc1 (stereo not drawn) | 37.2 µM
5 | Cc1ccc(Nc2nc(Nc3cccc(F)c3)nc3nccnc23)c(C)c1 | > 50 µM (inactive)
6 | Cc1cccc(NC(=O)c2nc(N3CCSCC3)c3cnn(C)c3n2)c1 | > 50 µM (inactive)
7 | Cc1noc(-c2ccc(N3CCCC(C(=O)NCc4ccc(F)cc4)C3)nc2)n1 (stereo not drawn) | 32.2 µM
8 | CCOc1ccc(Nc2cc(C(=O)NCCc3ccccc3)c3ccccc3n2)cc1 | 35.4 µM
9 | CC1=C(c2ccc(Cl)cc2)S(=O)(=O)NC1=NCC(=O)Nc1ccc(F)cc1 | > 50 µM (inactive)
10 | CC1(C)CC2CC(C)(CN2Cc2c(O)ccc3ccccc23)C1 (stereo not drawn) | > 50 µM (inactive)
11 | COc1ccc(-c2nc(-c3nnn(Cc4ccc(F)cc4)c3C)no2)c(OC)c1 | 20.4 µM
12 | CCc1nc2cc(NC(=O)c3cccc(N4CCCC4=O)c3)ccc2n1C | > 50 µM (inactive)
13 | COc1ccccc1C(=O)NCC(c1ccc2c(c1)CCCN2C)N1CCCC1 (stereo not drawn) | > 50 µM (inactive)
14 | Cn1nc(-c2ccccc2)c(COC(=O)c2ccc([N+](=O)[O-])cc2)c1Cl | > 50 µM (inactive)
15 | O=C1NCCCC1Cc1ccc(-c2cccc(C(=O)N3CCc4ccccc4C3)c2)cc1 (stereo not drawn) | > 50 µM (inactive)
16 | COc1ccc(-n2c(SCC(=O)c3ccc(F)cc3)nnc2-c2cccnc2)cc1 | 26.8 µM
17 | COC(=O)c1ccc2c(=O)n(CCCCCC(=O)NCCc3ccc(S(N)(=O)=O)cc3)c(=O)[nH]c2c1 | 12.5 µM
18 | COc1ccccc1NC(=O)Cn1cc(C(=O)c2ccc(C)cc2)c(=O)c2cc(Cl)ccc21 | 23.9 µM
19 | Cc1cc(C)c(O)c(-c2cc(C(=O)Nc3ccccc3Cl)[nH]n2)c1 | 12.7 µM
20 | CCOc1ccccc1NC(=O)Cn1ccn2nc(-c3ccc(OC)cc3)cc2c1=O | > 50 µM (inactive)
21 | C[C@@H]1OC2=C(C(=O)c3cccc(O)c3C2=O)[C@H](O)[C@@H]1O | 4.45 µM
22 | CCc1nc(-c2cc(C(=O)N3CCOCC3)c3ccccn23)cs1 | > 50 µM (inactive)
23 | COc1cc(C)c2c(=O)c3c(oc2c1)C(=O)c1c(O)c(OC)cc(O)c1C3=O | 2.76 µM
24 | Cc1ccc(CNC(=O)Cn2cnc3c(cnn3-c3cccc(Cl)c3)c2=O)cc1 | > 50 µM (inactive)
25 | COc1ccc(-n2nnc(C(=O)Nc3ccc(F)cc3)c2C)cc1 | > 50 µM (inactive)

Row | SMILES | IC50
26 | Cc1cc(C(=O)Nc2cc(C)n(Cc3ccc(Cl)cc3)n2)no1 | > 50 µM (inactive)
27 | COc1ccc(C(=O)Nc2ccc3c(c2)Sc2ncccc2C(=O)N3C)cn1 | > 50 µM (inactive)
28 | O=C(Nc1ccc2nccnc2c1)c1cccc(C(F)(F)F)c1 | > 50 µM (inactive)
29 | Cc1c(C(=O)Nc2cccc(C(F)(F)F)c2)cnn1-c1ccccn1 | > 50 µM (inactive)
30 | Cc1cccc(Cl)c1NC(=O)Nc1ccc(NC(=O)c2ccccc2O)cc1 | 47.8 µM
31 | COc1ccc(OC)c(NC(=O)CS(=O)(=O)c2cn(CC(=O)N3CCC(C)CC3)c3ccccc23)c1 | 33.8 µM
32 | COCCNC(=O)c1ccnn1-c1ccc2ccc(-c3cccnc3)cn12 | > 50 µM (inactive)
33 | CSc1nc2ncc3c(=O)n(CCc4ccccc4)ccc3n2n1 | > 50 µM (inactive)
34 | COc1ccc(NC(=O)CSc2oc(-c3ccc(C)cc3)nc2S(=O)(=O)c2ccc(Br)cc2)c(OC)c1 | > 50 µM (inactive)
35 | CC(C)OC(=O)c1cc2c(ccn2C)n1CC(=O)N1CCN(C(=O)c2ccco2)CC1 | > 50 µM (inactive)
36 | COc1ccc(C(=O)CSc2ccc3nnc(CCNC(=O)c4ccc(OC)cc4)n3n2)cc1 | > 50 µM (inactive)
37 | COc1ccc(C(=O)NCCc2nnc3ccc(SCC(=O)NCc4ccc(F)cc4)nn23)cc1 | 26.2 µM
38 | COc1ccc(NS(=O)(=O)c2cc(NC(=O)CCc3nc4ccccc4s3)ccc2C)cc1 | 31.7 µM
39 | COc1ccc(Cn2c(=O)[nH]c3cc(C(=O)NCCCN4CCN(c5cccc(Cl)c5)CC4)ccc3c2=O)cc1 | 10 µM
40 | COc1cccc(-c2cc(=O)[nH]c(Nc3nc(C)c4ccccc4n3)n2)c1 | > 50 µM (inactive)
41 | CS(=O)(=O)N1CCCN(c2nc3cc(Cl)ccc3n3cccc23)CC1 | > 50 µM (inactive)
42 | O=C(OCCCN1C(=O)c2cccc3c(N4CCCCC4)ccc(c23)C1=O)c1ccccn1 | > 50 µM (inactive)
43 | O=C1CC(O)C(C2=CC(=O)c3c(O)cccc3C2=O)O1 (stereo not drawn) | 2.47 µM
44 | Cc1nn(CC(=O)NCc2ccccc2F)c2ccccc12 | > 50 µM (inactive)
45 | Fc1cc(F)c2[nH]cc(-c3nnnn3-c3ccc4ccccc4c3)c2c1 | 32.6 µM
46 | COc1ccccc1CNC(=O)CCCCn1c(=O)c2ccccc2n(Cc2ccccc2C#N)c1=O | 16.9 µM
47 | O=C(Cn1cnc(-c2noc(-c3ccncc3)n2)c1)N1CCN(c2ccccc2F)CC1 | > 50 µM (inactive)
48 | Cc1nnc(NC(=O)C2CCN(c3ccc(S(N)(=O)=O)cc3[N+](=O)[O-])CC2)o1 | 15.6 µM
49 | c1ccc2c(Cc3nc(-c4ccncc4)no3)cccc2c1 | > 50 µM (inactive)
50 | O=C(/C=C/c1c(F)cccc1Cl)N1CCc2ccccc2C1 | > 50 µM (inactive)

Row | SMILES | IC50
51 | Cc1ccc2c(c1)N(C)C(=O)c1cc(NC(=O)c3ccc(F)cc3)ccc1O2 | 22.5 µM
52 | CCN(CC(=O)Nc1cc(C)on1)c1cccc2ccccc12 | > 50 µM (inactive)
53 | O=C(NCc1ccc2c(c1)OCO2)c1cc2c(s1)-c1ccccc1OC2 | 21.7 µM
54 | Cc1nc2cc(NC(=O)C3CN(C(=O)c4cnccn4)C3)ccc2s1 | > 50 µM (inactive)
55 | COc1cc(C(=O)NC(Cc2ccccc2)c2nc3ccccc3[nH]2)cc(OC)c1OC (stereo not drawn) | 2.99 µM
56 | CCCC(=O)Nc1nc2ccc(CCC(=O)NCc3ccc(F)cc3)cc2s1 | 35.6 µM
57 | O=C(Cc1c[nH]c2ccccc12)Nc1nc2ccccc2s1 | > 50 µM (inactive)
58 | Cc1cc(NC(=O)Cn2c(=O)n(CCCCC(=O)NCc3ccco3)c(=O)c3ccccc32)ccc1Br | 3.48 µM
59 | Cc1cccc(CNC(=O)C2CCCN(S(=O)(=O)Cc3ccc(F)cc3)C2)c1 (stereo not drawn) | 41.6 µM
60 | O=C(CNc1ccc(F)c(Cl)c1)Nc1ccc2c(c1)OCCO2 | > 50 µM (inactive)
61 | Cc1cc(C)c2cc(CN(CCc3ccccc3)C(=O)Nc3ccccc3)c(=O)[nH]c2c1 | > 50 µM (inactive)
62 | O=C1Oc2nc3ccccc3cc2CN1Cc1ccco1 | 34.4 µM
63 | CCCn1c(=O)c(-c2ccc(C(=O)NCc3ccc(OC)cc3)cc2)nc2cccnc21 | 6.42 µM
64 | CCC(C)(C)C1CCC2(CC1)N=C(N)Nc1nc3ccccc3n12 (stereo not drawn) | > 50 µM (inactive)
65 | COc1cccc(-c2nc3cnccn3c2NCc2ccc3c(c2)OCO3)c1 | > 50 µM (inactive)
66 | Cc1ccc(C(=O)Nc2nc3n(n2)C(c2ccccc2)CC(=O)N3)cc1 (stereo not drawn) | 28.6 µM
67 | COc1ccc(S(=O)(=O)N2CCc3ccccc32)cc1C(=O)Nc1ccc2[nH]c(=O)[nH]c2c1 | 19.5 µM
68 | CCn1c(CN2CCCC(c3nc(-c4cccnc4)n[nH]3)C2)nc2ccccc21 (stereo not drawn) | > 50 µM (inactive)
69 | COc1cnc(CSc2ncccn2)cc1OCC(=O)Nc1cc(C)ccc1C | > 50 µM (inactive)
70 | COc1cccc(NC(=O)Cn2c(COc3ccccc3)nc3ccccc32)c1 | > 50 µM (inactive)
71 | COc1cc(Cl)c(C)cc1NC(=O)Cn1c(=O)n(CC(=O)NCc2ccco2)c(=O)c2ccccc21 | > 50 µM (inactive)
72 | COc1ccc(C(=O)CCN2CCOCC2)cc1[N+](=O)[O-] | > 50 µM (inactive)
73 | COc1ccc(NC(=O)C2CC(=O)Nc3c(-c4ccc(Cl)cc4)cnn32)c(OC)c1 (stereo not drawn) | 34 µM
74 | C=C1CCC2[C@](C)(CCC[C@]2(C)C(=O)OC)[C@H]1CCc1ccoc1CNC(C)C (stereo partly drawn) | > 50 µM (inactive)
75 | CN(C)c1ccc(CCN2CCc3nc4cccnc4cc3C2)cc1 | > 50 µM (inactive)

Row | SMILES | IC50
76 | O=C(Cn1cc(C(=O)C(F)(F)F)c2ccccc21)N1CCc2ccccc21 | 4.98 µM
77 | O=C(/C=C/c1ccccc1)N1CCN(C2=NS(=O)(=O)c3ccccc32)CC1 | > 50 µM (inactive)
78 | COc1ccccc1C(=O)N1CCC(S(=O)(=O)c2ccc(-c3ccco3)cc2)CC1 | > 50 µM (inactive)
79 | O=S(c1ccc2ccccc2c1)c1cnns1 (stereo not drawn) | > 50 µM (inactive)
80 | CCCNc1cc(-c2ccccc2)nc2nc(-c3cccnc3)nn12 | > 50 µM (inactive)
81 | O=C(NCc1ccc(-c2nc3cnccc3o2)cc1)c1cc2ccccc2o1 | > 50 µM (inactive)
82 | COc1ccc(/C=C/c2ccnc3nc(-n4cccc4)nn23)cc1 | > 50 µM (inactive)
83 | Cc1ccc(NC(=O)c2ccc3nn(CC(=O)Nc4ccc(F)cc4F)c(=O)n3c2)cc1 | > 50 µM (inactive)
84 | Cn1c2ccccc2c2ncn(Cc3ccc(F)cc3)c(=O)c21 | > 50 µM (inactive)
85 | CN[C@H]1CC2(CCN(C(=O)CCCn3cccn3)CC2)OC[C@]1(C)O | > 50 µM (inactive)
86 | O=C1NC(=O)/C(=C/c2ccc(OC(=O)c3ccc(Cl)cc3Cl)cc2)N1 | 11 µM
87 | COc1ncccc1CN1CCn2c(Cn3cccn3)cnc2C1C (stereo not drawn) | > 50 µM (inactive)
88 | COc1ccc(CCNC(=O)c2ccc3ccccc3c2)cc1OC | > 50 µM (inactive)
89 | O=C(NC(Cc1ccccc1)c1nc2ccccc2[nH]1)c1ccccn1 (stereo not drawn) | > 50 µM (inactive)
90 | COCCCN1CCS(=O)(=O)c2c(Cl)c(F)nc(Oc3ccccc3F)c21 | > 50 µM (inactive)
91 | Cc1cccc(NC(=O)CSc2nnc(-c3n[nH]c4c3CCC4)n2N)c1 | 31.6 µM
92 | COc1ccc(/C=C/C(=O)Nc2c3c(nc4c2CCC4)CCCC3)cc1 | 23.6 µM
93 | O=C1CC(NS(=O)(=O)c2ccc3ccccc3c2)CN1c1cccc(F)c1 (stereo not drawn) | > 50 µM (inactive)
94 | O=C1CN(C(=O)COC(=O)CCCN2C(=O)c3cccc4cccc(c34)C2=O)c2ccccc2N1 | > 50 µM (inactive)
95 | O=C(Nc1ccc(F)c(Cl)c1)c1ccc(N2CCCCS2(=O)=O)cc1Cl | > 50 µM (inactive)
96 | COc1ccc(C2/C(=C(\O)c3ccccc3)C(=O)C(=O)N2c2nc3ccc(F)cc3s2)cc1 (stereo not drawn) | 33.8 µM
97 | CC(=O)c1ccc(Cc2ncc(C(F)(F)F)cc2Cl)s1 | > 50 µM (inactive)
98 | Cc1cc(NC(=O)c2nnn(-c3ccccc3Cl)c2C)no1 | > 50 µM (inactive)
